Results: the METLIN SMRT retention time set (Domingo-Almenara et al. 2019)

Assay: gradient 5% acetonitrile 3 min, to 50% in 2 min, to 85% in 15 min, held 3 min, 100 µL/min
Details: column: Zorbax Extend-C18 2.1 x 50 mm; eluents: water / acetonitrile, 0.1% formic acid
Outline: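 The mobile phases were water and acetonitrile, each with 0.1% formic acid, pumped at 100 μL/min through a Zorbax Extend-C18 column (2.1 × 50 mm, 1.8 μm). Pure standards were injected as mixtures of ~100 molecules and detected by a quadrupole time-of-flight mass spectrometer in positive and negative ionization mode. Retention time came from computationally picked adduct peaks, each inspected by hand.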

| RP-LC retention time [s] | SMILES |
| --- | --- |
| 861 | O=C(NCCC1CCN(C(=O)Nc2cc(F)cc(F)c2)CC1)c1cccs1 |
| 653 | Cc1oc2c(c1C(=O)NCCc1ccccc1)C1=NC(C)(C)CN1C=N2 |
| 995 | COc1ccc(NS(=O)(=O)c2cc(-c3cc(C(F)(F)F)[nH]n3)sc2C)cc1Cl |
| 944 | O=C(c1cn(-c2cc(N3CCCCC3)ncn2)cn1)N1CCN(c2ccccc2)CC1 |
| 950 | Cc1ccc(C)c(CNC(=O)c2nnc(-c3ccc(S(=O)(=O)N(C)C)cc3)o2)c1 |
| 990 | Cc1ccc(Nc2c(-c3ccc(N(C)C)cc3)nc3cnccn23)cc1Br |
| 734 | O=C(c1ccoc1)N1CC(n2cc(COCc3ccccc3)nn2)C1 |
| 756 | COc1ccc(C(=O)NC2CCN(c3ccc(F)cc3)C2=O)cc1 (centres undefined) |
| 641 | CCc1nc2cc(CNC(=O)Cc3ccc(Cl)cc3)ccc2n1C |
| 634 | COc1ccc(S(=O)(=O)Nc2cccc(-c3cn4cccc(C)c4n3)c2)cc1OC |
| 568 | O=C(O)c1nnn(-c2ccc3c(c2)OCCO3)c1-c1cccnc1 |
| 756 | Cc1noc(C)c1-c1ccc(S(=O)(=O)Nc2ccc(S(N)(=O)=O)cc2)cc1 |
| 1020 | CCCCN1C(=O)C(C)(C(=O)NCc2cc(F)cc(F)c2)Oc2cccnc21 (centres undefined) |
| 558 | CCN1CCC2(CC1)OC(=O)C(C)=C2C(=O)NCc1ccc(C)cc1 |
| 619 | CCn1cc(S(=O)(=O)N2CCCC2c2noc(CO)n2)cn1 (centres undefined) |
| 600 | CCCc1nc2cccnc2n1C1CCN(C(=O)Nc2ccc3c(c2)OCCO3)C1 (centres undefined) |
| 932 | CC(C)(C)c1ccc(C(=O)Nc2ccc(S(N)(=O)=O)cc2)cc1 |
| 632 | CCOC(=O)N1CCN(C(=O)CSc2ccc(-c3sc(C)nc3C)nn2)CC1 |
| 803 | Cc1ccc(CNC(=O)c2cn(C)c3c(c(C)nn3-c3ccc(F)cc3)c2=O)o1 |
| 1200 | CCc1nc2cc(-c3noc(-c4ccc(C)s4)n3)ccc2o1 |
| 709 | O=C(Cn1cccn1)N1CCCC(COCc2ccccc2)C1 (centres undefined) |
| 603 | CCN1c2ccc(C)cc2C(=O)NC12CCN(C(=O)c1cccc(Cl)c1)CC2 |

| RP-LC retention time [s] | SMILES |
| --- | --- |
| 932 | COc1ccc(OC)c(NC(=O)N(C)CCc2noc(COc3ccccc3F)n2)c1 |
| 617 | O=C(c1ccc2c(=O)n(-c3ccccc3)c(N3CCCC3)nc2c1)N1CCN(c2ccccn2)CC1 |
| 682 | COc1cccc(-c2ccc(=O)n(Cc3nc(-c4cccc(OC)c4)no3)n2)c1 |
| 1100 | Cc1ccc(-c2noc(Cc3nnc(-c4ccccc4)o3)n2)cc1C |
| 887 | O=C(CC1CCCCN1S(=O)(=O)c1ccccc1)Nc1cc(F)ccc1F (centres undefined) |
| 860 | CCc1nn(C)c(=O)c2cc(S(=O)(=O)NCc3ccccc3F)cn12 |
| 943 | CCOC(=O)Cc1c(C)nc2c(-c3ccccc3OC)c(C)nn2c1C |
| 587 | CSc1cccc(NC(=O)Cn2c(C)nc3c(c2=O)CN(Cc2ccccc2)CC3)c1 |
| 877 | CCOC(=O)Cn1nc2ccc(S(=O)(=O)N3CCC(C)CC3)cn2c1=O |
| 726 | COC(=O)C1C(=O)C2=C(CC1C)NC(=O)CC2c1cccc(OC)c1 (centres undefined) |
| 738 | Cc1ccc2nc(C(=O)N3CCN(c4ccc(Cl)cc4)CC3)cn2c1 |
| 788 | O=C(C1CCCN(c2ccc(-c3ccccc3)nn2)C1)N1CCN(c2ccccc2F)CC1 (centres undefined) |
| 574 | CCn1c(N2CCC(C(=O)NCCCN3CCOCC3)CC2)cc(=O)n(C)c1=O |
| 654 | O=C(Cc1csc(NC(=O)c2cnccn2)n1)NCCc1c[nH]c2ccccc12 |
| 678 | N#CCCN1CCN(c2ccc(NC(=O)c3ccc(Br)cc3)c(C(=O)O)c2)CC1 |
| 863 | CCC(C)NC(=O)Cn1c(=O)cc(-c2nc(C3CC3)no2)c2ccccc21 (centres undefined) |
| 733 | CC(=O)N(C)CCc1noc(-c2ccc(C(=O)NCCC(C)C)cc2)n1 |
| 734 | CCn1ncc(Cl)c1C(=O)N1CCCC1c1c(C)noc1C (centres undefined) |
| 648 | O=C(NC1CCCC1)C1CCCN(c2nnc3ccc(Cl)cn23)C1 (centres undefined) |
| 782 | CCOc1ccc(-c2noc(N3CCC(C(=O)N4CCCC4)CC3)n2)cc1OC |
| 682 | CCCNc1cc(N2CCC(CCC(=O)Nc3ccc4c(c3)OCCO4)CC2)ncn1 |
| 631 | COCC(=O)N1CCC2(CC1)NC(=O)N(CCc1ccccc1)C2=O |

| RP-LC retention time [s] | SMILES |
| --- | --- |
| 577 | O=C([C@@H]1C[C@H](Oc2cccnc2)CN1C(=O)C1CCCC1)N1CCCC1 |
| 681 | CCCOc1ccc(-c2cn3ccccc3n2)cc1[N+](=O)[O-] |
| 749 | Cc1ccc(CNC(=O)CCc2nnc3c4cc(-c5ccccc5)nn4ccn23)o1 |
| 610 | CNC(=O)c1cncc(OC(C)C)c1 |
| 842 | CCOC(=O)c1c(C)c(CCC(=O)NCc2ccc(C)o2)n(C)c1C |
| 1000 | COc1ccc(C2=NN(C(=O)c3ccccc3)C(c3cccc([N+](=O)[O-])c3)C2)cc1 (centres undefined) |
| 567 | COC(=O)C1=C(CN2CCN(C)CC2)NC(=O)NC1c1ccc(OC)c(OC)c1 (centres undefined) |
| 838 | O=C(Nc1ccc(Cl)cc1)Nc1cccn2ncnc12 |
| 1150 | CS(=O)(=O)N1CCC2(CC1)CN(c1cccc(F)c1)C2c1ccccc1 (centres undefined) |
| 625 | c1ccc(N2CCN(Cc3nc(-c4ccc(N5CCSCC5)nc4)no3)CC2)nc1 |
| 702 | CCC(=O)N1C[C@@H]2C(=O)N(CCc3ccccc3)C(=O)[C@@H]2C1 |
| 721 | O=C(CSCc1ccccc1)N1CCC(Cn2cccn2)CC1 |
| 752 | Cc1ccccc1C(=O)N1CCN(CC(F)(F)F)CC1 |
| 1240 | CCOc1ccc(C(=O)Nc2nc(-c3cccc(Br)c3)cs2)cc1 |
| 812 | CCCC(=O)Nc1nc(-c2ccc3c(c2)NC(=O)C(C)O3)c(C)s1 (centres undefined) |
| 971 | CN(CCc1noc(COc2ccc(F)cc2)n1)C(=O)Nc1cccc(Br)c1 |
| 967 | COCC(=O)N(CC(=O)N1CCc2sccc2C1COc1ccc(Cl)c(C)c1)C(C)C (centres undefined) |
| 843 | O=C(Nc1ccccn1)C1CCN(S(=O)(=O)c2ccc(-c3noc(C4CC4)n3)cc2)CC1 |
| 1060 | COc1ccc(-n2cc(C(=O)OCC(=O)OC(C)C)c3ccccc3c2=O)cc1 |
| 946 | CCc1ccc(NC(=O)CSc2nnc3c4cc(-c5ccc(OC)cc5)nn4ccn23)cc1 |
| 706 | COc1cccc(OC)c1C(=O)Nc1ccc2c(c1)Sc1ncccc1C(=O)N2C |
| 881 | CN(C)c1ccc(-c2nc3cnc(Br)cn3c2Nc2ccc3c(c2)OCCO3)cc1 |

| RP-LC retention time [s] | SMILES |
| --- | --- |
| 680 | Fc1ccccc1CSc1ccc2nnc(-c3cccnc3)n2n1 |
| 726 | COc1ccc(NC(=O)c2ccc(-n3cnc(NC(=O)C4CC4)c3)cc2)c(OC)c1 |
| 647 | O=C(Nc1onc2c1CSC2)c1cccc(-n2cnnn2)c1 |
| 1120 | O=C(Nc1nc(-c2ccc(F)cc2)cs1)c1cccc(Br)c1 |
| 869 | CC(C)(C)CNC(=O)c1cc(=O)[nH]c2ccccc12 |
| 606 | O=C(NCCN1CCOCC1)c1cc2n(n1)CCCN(Cc1ccc(F)cc1)C2=O |
| 587 | CC1CCN(C(=O)c2ccc3c(c2)n(C)c(=O)c2ccnn23)CC1 |
| 933 | CCn1ccc2c(cc(C(=O)Nc3cc(C)c(Cl)cc3OC)n2C)c1=O |
| 954 | Cc1ccc(S(=O)(=O)N2CCC(n3c(-c4ccco4)nc4cccnc43)C2)cc1F (centres undefined) |
| 610 | COc1ccc(Nc2c(C(=O)N3CCCC(C)C3)cnc3nc(C)ccc23)cc1OC (centres undefined) |
| 855 | O=c1n(Cc2ccc(F)cc2)nc2ccc(S(=O)(=O)N3CCCC3)cn12 |
| 614 | O=C(NCCc1cccs1)c1cc[nH]c1C1CCCNC1 (centres undefined) |
| 874 | COc1ccc(-c2nc3cccnc3n2C2CCN(S(=O)(=O)Cc3ccccc3)C2)cc1 (centres undefined) |
| 879 | COc1cc(OC)cc(C(=O)N2CCCC2c2nc(-c3ccc(OC)c(OC)c3)no2)c1 (centres undefined) |
| 757 | CCc1ccc(-c2cc3c(=O)n(Cc4noc(CN5CCC(C)CC5)n4)ccn3n2)cc1 |
| 1300 | Cc1cccc(-c2nc(Cn3nnc(-c4nc(-c5ccc(F)cc5)no4)c3C)c(C)o2)c1 |
| 668 | Cn1ccc2cc(S(=O)(=O)N3CCCC(C(=O)NCCCN4CCCCCC4)C3)ccc21 (centres undefined) |
| 604 | COC(=O)C1=C(CN2CCN(C)CC2)NC(=O)NC1c1ccc(Cl)cc1 (centres undefined) |
| 698 | CCc1cccc(NC(=O)c2c(C)oc3c2C2=NC(CC)CN2C=N3)c1 (centres undefined) |
| 932 | COc1ccc(OC)c(NC(=O)N2CCCC(C)(C(=O)NCc3ccc(C)cc3)C2)c1 (centres undefined) |
| 966 | CCc1ccc(N2C(=O)N(CC(=O)N3CCOc4ccc(C)cc43)C3CS(=O)(=O)CC32)cc1 (centres undefined) |

| SMILES | RP-LC retention time [s] |
| --- | --- |
| CN1CCC2(CCN3CCc4c(oc5ccccc45)C3C2)N(C)C1=O (centres undefined) | 615 |
| CCCn1cc(C(=O)NCc2ccc3c(c2)OCO3)c2cccnc21 | 758 |
